In article PMC11416981 (Frontiers in Pharmacology, 2024):

Key:
Format in all cases: in vivo, humans
[1] = Serum teicoplanin concentration by HPLC; conditions: Uncured group n = 7, serum collected on the 4th day prior to drug administration, intraperitoneal 0.2 g daily, HPLC-UV 215 nm, mean ± SD
Procedure: (§1) All patients received peritoneal dialysate and serum samples. […] Serum samples were collected on the 4th day prior to drug administration. Blood samples were centrifuged at 3,000 rpm for 10 minutes. The upper serum layer was then transferred into labeled EP tubes and stored at −80°C. Peritoneal fluid samples were collected daily after the PD procedure. The peritoneal fluid bag was disinfected with iodine, and peritoneal effluent was withdrawn using a sterile syringe and stored at −80°C.
(§2) An Agilent Zorbax SB-C18 column (4.6 × 250 mm, 5 μm) was used. Methyl p-hydroxybenzoate served as the internal standard. The column temperature was kept at 35°C. The mobile phase comprised acetonitrile - 0.01 mol/L potassium dihydrogen phosphate (26:74, v/v, pH = 2.8 adjusted by phosphoric acid). A flow rate of 1 mL/min was set, with an injection volume of 40 μL. UV detection was conducted at 215 nm, while the column temperature remained at 40°C. The pretreatment and chromatographic methods for detecting teicoplanin in serum and PD effluent are the same (Supplement Material).

[2] = Teicoplanin concentration in peritoneal dialysis effluent (PDE) by HPLC
Procedure: (§3) According to the patient’s PD plan, teicoplanin for injection was evenly distributed into each bag of PD fluid before the patient’s PD procedure to ensure that each bag of dialysis fluid entering the peritoneal cavity contained teicoplanin. […] The number of dialysis times per day is determined by the peritoneal function of each peritoneal dialysis patient.
as §1, §2
Using multiple 1.5 mL centrifuge tubes, 360 μL of bovine serum is added to each tube. Subsequently, 40 μL of the respective standard curve series working solution, 30 μL of the internal standard solution, and 600 μL of acetonitrile are added. The contents are thoroughly mixed by vortexing, centrifuged at 14,000 rpm for 8 minutes, and 100 μL of the supernatant is transferred to sample vials for HPLC analysis.
Perform linear regression fitting using the weighted (1/X^2) least squares method, resulting in the standard curve regression equation y = 0.0262x-0.0124 (R^2 = 0.9994).

[3] = test system: PDAP patients; test: Renal function, blood lipid and electrolyte indicators before and after teicoplanin treatment; conditions: post-treatment group n = 36
Description: (§4) The secondary efficacy endpoints of this study mainly involve infectious markers: C-reactive protein (CRP) and procalcitonin (PCT); Hematological parameters: white blood cell count (b-WBC), blood neutrophilic granulocyte percentage (b-NE%), and hemoglobin (Hb); Renal function markers: serum creatinine (Scr), urea, uric acid (UA), and albumin (ALB).
There were no significant changes in indicators such as Scr after medication compared to before treatment, and there was no significant difference in the patients' renal function (Table S3).

[4] = test system: PDAP patients with gram-positive bacteria cultured from PD effluent; test: Efficacy of intraperitoneal teicoplanin in PDAP patients (PD effluent analysis, clinical symptoms, infection markers)
Description: According to the ISPD guidelines recommendation ([Li et al., 2022]), doctors can establish a diagnosis of PDAP. […] Participants should not have taken part in other clinical trials in the past 3 months, understand the trial’s purpose, willingly participate, and sign informed consent forms.
as §3
[…] This assessment considered primary efficacy endpoints, secondary efficacy endpoints, and primary safety endpoints. The primary efficacy endpoints in this study are: 1) White blood cell count in PD effluent (p-WBC) < 100 × 10^6/L; 2) Percentage of neutrophilic granulocytes in PD effluent (p-NE%) < 50%; 3) Resolution of abdominal pain, absence of fever, and clarity of PD effluent in clinical signs of patients. According to ISPD guidelines, meeting all three criteria or two of the three constitutes a cure, while meeting one is classified as partial relief. The efficacy calculation involves determining the proportion of cured and partially relieved patients among the total.
as §4
However, most patients show significant improvement in clinical symptoms within 1 week.

[5] = Cured group n = 29, intraperitoneal 0.2 g daily, HPLC-UV, mean (Q25, Q75)
[6] = Cured group n = 29, intraperitoneal 0.2 g daily, HPLC-UV, mean ± SD, SD
[7] = Uncured group n = 7, intraperitoneal 0.2 g daily, HPLC-UV, mean ± SD, SD
[8] = Uncured group n = 7, mean (Q25, Q75)
[9] = Uncured group n = 7, mean ± SD, SD
[10] = number of 36 PDAP patients, intraperitoneal 0.2 g daily, after 7 days

In the case of teicoplanin, the Serum teicoplanin concentration [1] is reported as 10.85 ± 4.92, the “PDE teicoplanin concentration on Day 5” value ([2]; 24-h urine volume 0–200 mL, n = 17, M50 (M25, M75)) is reported as 12.85 (8.12, 21.23) mg/L and the “PDE teicoplanin concentration on Day 5” value ([2]; 24-h urine volume 201–537 mL, n = 10, M50 (M25, M75)) is reported as 10.17 (7.38, 24.59) mg/L. For the same substance, the “PDE teicoplanin concentration on Day 5” value ([2]; 24-h urine volume >537 mL, n = 9, M50 (M25, M75)) was 23.16 (18.89, 39.45) mg/L, the “Day 3 PDE teicoplanin concentration” value [2, 5] was 14.17 (6.80, 22.93) mg/L and the “Day 7 PDE teicoplanin concentration” value [2, 5] was 20.89 (9.45, 30.23) mg/L. The “Day 1 PDE teicoplanin concentration” value [2, 6] was 13.65 ± 3.26 mg/L, the “Day 5 PDE teicoplanin concentration” value [2, 6] was 18.98 ± 2.43 mg/L and the “Day 7 PDE teicoplanin concentration” value ([2]; Uncured group n = 7, intraperitoneal 0.2 g daily, HPLC-UV, mean (Q25, Q75)) was 11.43 (8.42, 13.21) mg/L. The “Day 1 PDE teicoplanin concentration” value [2, 7] was 11.48 ± 3.39 mg/L, the “Day 5 PDE teicoplanin concentration” value [2, 7] was 12.07 ± 2.68 mg/L and the “day-5 PDE teicoplanin concentration” value ([2]; age 49 ~ 61 years old, n = 9, mean ± SD, SD) was 10.18 ± 1.68 mg/L. The “day-5 PDE teicoplanin concentration” value ([2]; age 62 ~ 71 years old, n = 9, mean ± SD, SD) was 20.19 ± 8.62 mg/L, the “day-5 PDE teicoplanin concentration” value ([2]; age > 71 years old, n = 9, mean ± SD, SD) was 29.46 ± 12.29 mg/L and the “day-5 PDE teicoplanin concentration” value ([2]; age ≤ 48 years old, n = 9, mean ± SD, SD) was 19.46 ± 10.28 mg/L. The “day-5 PDE teicoplanin concentration” value ([2]; body weight 54-60 kg, n = 9, mean ± SD, SD) was 20.19 ± 6.74 mg/L, the “day-5 PDE teicoplanin concentration” value ([2]; body weight 61-76.5 kg, n = 8, mean ± SD, SD) was 15.37 ± 6.39 mg/L and the “day-5 PDE teicoplanin concentration” value ([2]; body weight ≤ 53 kg, n = 10, mean ± SD, SD) was 24.23 ± 7.34 mg/L. The “day-5 PDE teicoplanin concentration” value ([2]; body weight ≥ 76.5kg, n = 9, mean ± SD, SD) was 19.27 ± 7.38 mg/L, the “day-5 PDE teicoplanin concentration” value ([2]; both G1.5% and G2.5% low calcium peritoneal dialysate, n = 8, mean ± SD, SD) was 19.47 ± 9.45 mg/L and the “PDE teicoplanin concentration on Day 5” value ([2]; daily PD frequency 1–3 times, n = 5, mean ± SD, SD) was 38.71 ± 16.36 mg/L. The “PDE teicoplanin concentration on Day 5” value ([2]; daily PD frequency 4 times, n = 18, mean ± SD, SD) was 12.89 ± 7.28 mg/L, the “PDE teicoplanin concentration on Day 5” value ([2]; daily PD frequency 5–6 times, n = 13, mean ± SD, SD) was 17.67 ± 10.23 mg/L and the “day-5 PDE teicoplanin concentration” value ([2]; eGFR 4.726 ~ 6.35 mL/min, n = 9, mean ± SD, SD) was 28.39 ± 11.47 mg/L. The “day-5 PDE teicoplanin concentration” value ([2]; eGFR 6.36 ~ 8.524 mL/min, n = 9, mean ± SD, SD) was 18.26 ± 7.45 mg/L, the “day-5 PDE teicoplanin concentration” value ([2]; eGFR ≤ 4.725 mL/min, n = 9, mean ± SD, SD) was 16.05 ± 5.28 mg/L and the “day-5 PDE teicoplanin concentration” value ([2]; eGFR ≥ 8.525 mL/min, n = 9, mean ± SD, SD) was 21.21 ± 9.21 mg/L. The “day-5 PDE teicoplanin concentration” value ([2]; females, n = 14, mean ± SD, SD) was 18.22 ± 6.29 mg/L, the “day-5 PDE teicoplanin concentration” value ([2]; fibrinogen 4.2 to 5.2 g/L, n = 9, mean ± SD, SD) was 20.72 ± 8.16 mg/L and the “day-5 PDE teicoplanin concentration” value ([2]; fibrinogen 5.3 to 6.54 g/L, n = 7, mean ± SD, SD) was 17.35 ± 6.45 mg/L. For the same substance, the “day-5 PDE teicoplanin concentration” value ([2]; fibrinogen ≤ 4.1 g/L, n = 9, mean ± SD, SD) was 30.56 ± 12.32 mg/L, the “day-5 PDE teicoplanin concentration” value ([2]; fibrinogen ≥ 6.55 g/L, n = 11, mean ± SD, SD) was 14.87 ± 7.07 mg/L and the “day-5 PDE teicoplanin concentration” value ([2]; males, n = 22, mean ± SD, SD) was 19.25 ± 7.89 mg/L. For the same substance, the “day-5 PDE teicoplanin concentration” value ([2]; only G1.5% low calcium peritoneal dialysate, n = 10, mean ± SD, SD) was 19.24 ± 10.23 mg/L, the “day-5 PDE teicoplanin concentration” value ([2]; only G2.5% low calcium peritoneal dialysate, n = 18, mean ± SD, SD) was 24.48 ± 9.23 mg/L and the ALB ([3]; mean ± SD, pre-treatment 28.66 ± 4.99, SD) was 28.55 ± 5.97 g/L. The Scr ([3]; mean ± SD, pre-treatment 772.45 ± 320.15, SD) was 739.46 ± 312.14 µmol/L, the HDL ([3]; pre-treatment 0.88 ± 0.38) was 0.76 ± 0.55 mmol/L and the TG ([3]; pre-treatment 1.25 (1.02, 1.74)) was 1.21 (1.01, 2.27) mmol/L. For the same substance, the LDL ([3]; pre-treatment 1.91 ± 0.81) was 1.49 ± 0.69 mmol/L, the Ca ([3]; pre-treatment 2.02 (1.86, 2.18)) was 2.08 (1.81, 2.26) mmol/L and the TC ([3]; pre-treatment 3.49 ± 1.02) was 2.97 ± 0.85 mmol/L. The eGFR ([3]; pre-treatment 6.35 (4.72, 8.52)) was 7.30 (4.90, 8.50) mL/min/1.73m^2, the Urea ([3]; pre-treatment 16.20 (12.55, 21.46)) was 16.00 (10.20, 21.30) mmol/L and the Na ([3]; pre-treatment 134.75 ± 5.25) was 136.40 ± 5.49 mmol/L. For the same substance, the CRP after treatment [4, 8] was 34.00 (5.20, 69.38) mg/L, the PCT after treatment [4, 8] was 0.66 (0.29, 2.87) ng/mL and the p-WBC after treatment [4, 8] was 159.00 (112.5, 1023.5) *10^6/L. The b-NE% after treatment [4, 9] was 71.08 ± 25.08%, the b-WBC after treatment [4, 9] was 6.40 ± 2.28 *10^9/L and the p-NE% after treatment [4, 9] was 58.86 ± 33.91%. For the same substance, the Fever ([4]; cases (%) in post-treatment group n = 36, pre-treatment 8 (22.3%)) was 1 (2.7%), the Diarrhea ([4]; cases (%) in post-treatment group n = 36, pre-treatment 9 (25%)) was 1 (2.7%) and the Peritoneal dialysate turbidity ([4]; cases (%) in post-treatment group n = 36, pre-treatment 26 (72.2%)) was 2 (5.6%). For the same substance, the Abdominal pain ([4]; cases (%) in post-treatment group n = 36, pre-treatment 31 (86.1%)) was 3 (8.3%), the “overall treatment success rate” value ([4]; cured plus partial remission among 36 PDAP patients, intraperitoneal 0.2 g daily, assessed after 7 days) was 88.9% and the “patients with treatment failure” value ([4]; number of 36 PDAP patients (1 died, 3 permanently transitioned to hemodialysis)) was 4. For the same substance, the patients cured [4, 10] was 29, the “patients in partial remission” value [4, 10] was 3 and the p-Lym% ([4]; post-treatment group n = 36, after 7 days, mean (Q25, Q75), pre-treatment 14.55 (9.85, 29.1)) was 72.85 (45.95, 86.45) %. For the same substance, the “p-Lym (lymphocyte count in PD effluent)” value ([4]; post-treatment group n = 36, after 7 days, mean (Q25, Q75), pre-treatment 196.00 (91.15, 444.62)) was 14.00 (6.25, 49.75) *10^6/L, the p-NE ([4]; post-treatment group n = 36, after 7 days, mean (Q25, Q75), pre-treatment 1099.60 (418.57, 3333.62)) was 4.00 (1.00, 18.00) *10^6/L and the “p-WBC (white blood cell count in PD effluent)” value ([4]; post-treatment group n = 36, after 7 days, mean (Q25, Q75), pre-treatment 1333.5 (573.50, 4475.00)) was 28.00 (10.25, 75.00) *10^6/L. For the same substance, the PCT ([4]; secondary indicator, post-treatment group n = 36, after 14 days, mean (Q25, Q75), pre-treatment 0.66 (0.30, 2.99)) was 0.61 (0.29, 1.15) ng/mL, the b-WBC ([4]; secondary indicator, post-treatment group n = 36, after 14 days, mean (Q25, Q75), pre-treatment 6.40 (5.32, 8.00)) was 6.20 (5.32, 8.85) *10^9/L and the CRP ([4]; secondary indicator, post-treatment group n = 36, after 14 days, mean (Q25, Q75), pre-treatment 37.50 (10.00, 101.27)) was 8.30 (3.55, 19.33) mg/L. The b-NE% ([4]; secondary indicator, post-treatment group n = 36, after 14 days, mean (Q25, Q75), pre-treatment 77.60 (67.42, 84.95)) was 69.10 (59.32, 72.60) %.
